Measured values reported in ChEMBL document CHEMBL1145363, “Discovery of 6-ethyl-2,4-diaminopyrimidine-based small molecule renin inhibitors” (Bioorg Med Chem Lett, 2007).
Values after ≈ are worked out from the molar mass of the structure shown.

Key:
[1] = biological target: T1, Renin (Homo sapiens, UniProt P00797); test: Inhibition of renin
T1 sequence (P00797 whole entry): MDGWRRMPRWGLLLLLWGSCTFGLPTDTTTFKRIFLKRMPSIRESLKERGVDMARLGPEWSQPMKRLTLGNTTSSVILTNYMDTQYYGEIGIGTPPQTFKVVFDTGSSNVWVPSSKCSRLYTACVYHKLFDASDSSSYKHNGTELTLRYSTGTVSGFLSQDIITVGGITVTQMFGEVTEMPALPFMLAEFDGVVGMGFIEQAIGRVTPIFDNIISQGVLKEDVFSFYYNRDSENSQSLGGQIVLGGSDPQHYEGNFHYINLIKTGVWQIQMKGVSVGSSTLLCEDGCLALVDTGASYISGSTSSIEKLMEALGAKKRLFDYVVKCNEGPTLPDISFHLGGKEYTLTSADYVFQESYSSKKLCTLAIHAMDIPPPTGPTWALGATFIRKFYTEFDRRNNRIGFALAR

[2] = biological target: Cytochrome P450 3A4 (Homo sapiens, UniProt P08684); test: Inhibition of CYP3A4; format: ADME
Cytochrome P450 3A4, sequence (P08684 whole entry): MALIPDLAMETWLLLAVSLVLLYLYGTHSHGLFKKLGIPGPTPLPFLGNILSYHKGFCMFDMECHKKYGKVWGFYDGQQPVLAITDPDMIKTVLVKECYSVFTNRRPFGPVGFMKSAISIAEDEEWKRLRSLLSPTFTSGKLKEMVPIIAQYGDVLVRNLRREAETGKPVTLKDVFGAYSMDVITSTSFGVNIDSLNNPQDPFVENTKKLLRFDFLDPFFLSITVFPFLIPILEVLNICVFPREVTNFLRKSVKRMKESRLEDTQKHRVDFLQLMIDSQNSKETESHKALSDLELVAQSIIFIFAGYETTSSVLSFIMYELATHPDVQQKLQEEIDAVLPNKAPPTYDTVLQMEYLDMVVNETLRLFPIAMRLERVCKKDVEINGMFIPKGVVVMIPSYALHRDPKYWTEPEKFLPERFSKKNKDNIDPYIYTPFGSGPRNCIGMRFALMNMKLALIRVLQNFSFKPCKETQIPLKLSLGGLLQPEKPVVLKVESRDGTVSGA

[3] = Half life in human liver microsome; format: ADME; conditions: liver microsomes
[4] = biological target: Cathepsin D (Homo sapiens) (UniProt P07339); test: Inhibition of cathepsin D at 100 uM
Cathepsin D (Homo sapiens), sequence (P07339 65-162 limits assumed): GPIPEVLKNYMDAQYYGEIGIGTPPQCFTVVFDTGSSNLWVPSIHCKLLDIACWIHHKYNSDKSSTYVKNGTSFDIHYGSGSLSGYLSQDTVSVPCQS
Cathepsin D (Homo sapiens), sequence (P07339 169-412 limits assumed): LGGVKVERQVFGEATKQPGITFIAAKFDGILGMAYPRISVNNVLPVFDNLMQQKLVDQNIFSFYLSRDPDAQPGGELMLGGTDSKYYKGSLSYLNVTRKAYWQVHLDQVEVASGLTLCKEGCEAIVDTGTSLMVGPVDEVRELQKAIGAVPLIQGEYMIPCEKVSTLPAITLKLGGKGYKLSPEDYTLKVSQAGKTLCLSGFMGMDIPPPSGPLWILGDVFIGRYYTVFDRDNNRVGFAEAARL

[5] = biological target: T2, Cathepsin E (Homo sapiens) (UniProt P14091); test: Inhibition of cathepsin E at 100 uM
T2 sequence (whole entry): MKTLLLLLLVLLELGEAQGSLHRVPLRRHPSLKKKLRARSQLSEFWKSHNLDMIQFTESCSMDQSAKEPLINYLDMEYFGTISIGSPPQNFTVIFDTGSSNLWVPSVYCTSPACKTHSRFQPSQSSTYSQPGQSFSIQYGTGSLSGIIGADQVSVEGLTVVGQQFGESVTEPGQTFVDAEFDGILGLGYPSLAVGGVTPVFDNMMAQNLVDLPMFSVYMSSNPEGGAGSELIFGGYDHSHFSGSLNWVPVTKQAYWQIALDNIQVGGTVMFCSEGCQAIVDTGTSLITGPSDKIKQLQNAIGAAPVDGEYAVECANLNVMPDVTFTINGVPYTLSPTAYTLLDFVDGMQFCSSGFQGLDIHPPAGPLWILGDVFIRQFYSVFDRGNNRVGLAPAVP

[6] = species: Homo sapiens; test: Inhibition of pepsin at 100 uM
[7] = Solubility of the compound; format: physicochemical
[8] = Elimination half life in Sprague-Dawley rat; format: ADME, organism-based; conditions: in vivo
[9] = Plasma clearance in Sprague-Dawley rat; format: ADME, organism-based
[10] = Volume of distribution in Sprague-Dawley rat; format: ADME, organism-based; conditions: in vivo, read-out: Vdss
[11] = Oral bioavailability in Sprague-Dawley rat; format: ADME, organism-based; conditions: in vivo

| IC50 [1] | IC50 [2] | half-life [3] | inhibition [4] | inhibition [5] | inhibition [6] | solubility [7] | half-life [8] | clearance [9] | Vd [10] | bioavailability [11] | Structure (SMILES) |
| --- | --- | --- | --- | --- | --- | --- | --- | --- | --- | --- | --- |
| 0.5 nM | – | – | – | – | – | – | – | – | – | – | COc1ccccc1COCCCOc1ccc(N2C(=O)CNC[C@@H]2COc2ccc3c(c2)N(CCNC(C)=O)CCC3)cc1 |
| 198 nM | 10000 nM | 5 min | 0% | 0% | 0% | – | – | – | – | – | CCc1nc(N)nc(N)c1-c1ccc2c(c1)N(CCC(=O)OC)CCC2 |
| 178 nM | 8000 nM | – | 0% | 0% | 0% | – | – | – | – | – | CCc1nc(N)nc(N)c1-c1ccc2c(c1)N(CCNC(C)=O)CCC2 |
| 91 nM | 12000 nM | 5 min | 0% | 0% | 0% | – | – | – | – | – | CCc1nc(N)nc(N)c1-c1ccc2c(c1)N(CCCCC(=O)OC)CCC2 |
| 27000 nM | – | – | – | – | – | – | – | – | – | – | CCc1nc(N)nc(N)c1-c1ccc(NCc2ccc(Cl)c(Cl)c2)cc1 |
| 4000 nM | – | – | – | – | – | – | – | – | – | – | CCc1nc(N)nc(N)c1-c1ccc(NCc2cc(F)cc(F)c2)cc1 |
| 650 nM | 2800 nM | – | 0% | 0% | 0% | 59.3 µg/mL (≈ 174 µM) | 66.6 min | 36.8 mL/min/kg | 1.6 L/kg | < 10% | CCc1nc(N)nc(N)c1-c1ccc2c(c1)N(CCCOC)CCC2 |
| 120 nM | – | 5 min | 0% | 0% | 0% | – | – | – | – | – | CCc1nc(N)nc(N)c1-c1ccc2c(c1)N(CCCC(=O)OC)CCC2 |
| 0.067 nM | – | – | – | – | – | – | – | – | – | – | COC[C@@H](O)CO[C@@H]1CNC[C@H](OCc2cc(OC)c3ccccc3c2)[C@H]1c1ccc(OCCCOCc2ccccc2OC)cc1 |
